The record followed here is US8178548B2, “Anti-infective agents and uses thereof” (priority 2007, dated 2012).

Read-outs that look alike come from different tables or passages of the source.

Experiment [1] concerns the target T1, HCV polymerase 1B (Δ21 NS5B, HCV Strain 1B BK) (Hepatitis C virus genotype 1b, UniProt P26663).
T1 construct: 20 to 50 nM Δ21 NS5B
In words: biochemical. In outline:
(§1)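 Δ21 NS5B (20–50 nM) was preincubated with inhibitor, 60–125 μM GTP and 2 mM MnCl2 (pH 7.4) for 15 min at RT. RNA synthesis on 5 nM template with 20 μM CTP/ATP and 1 μM ³H-UTP ran 2–4 h at RT. Spermine-precipitated RNA was filter-counted, and IC50 was fit with a tight-binding equation.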

Experiment [2] has as its target T2, HCV polymerase 1A (Δ21 NS5B, H77) (Hepatitis C virus genotype 1a, UniProt P27958).
T2 construct: 20 to 50 nM Δ21 NS5B
Kind of experiment: biochemical. In outline: as §1

Experiment [3] concerns genotype 1a-H77 subgenomic replicon cell line. Kind of experiment: HCV Polymerase Replicon Assay, genotype 1a-H77 (luciferase reporter). Type of experiment: cell-based. To be noted: read-out: EC50 1a. A general note: In antiviral work, replicon cells carry a viral genome segment that copies itself.
Experiment [4] has as its system genotype 1b-Con1 subgenomic replicon cell line. In words: HCV Polymerase Replicon Assay, genotype 1b-Con1 (luciferase reporter). To be noted: read-out: EC50 1b. Type of experiment: cell-based.
The mark [5] stands for this setting: Hepatitis C virus, 72 h, replicon 1a-H77, luciferase, three days.
The mark [6] stands for this setting: Hepatitis C virus, 72 h, replicon 1b-Con1, luciferase, three days.

T2 sequence (P27958 2421-2990, stated change not applied): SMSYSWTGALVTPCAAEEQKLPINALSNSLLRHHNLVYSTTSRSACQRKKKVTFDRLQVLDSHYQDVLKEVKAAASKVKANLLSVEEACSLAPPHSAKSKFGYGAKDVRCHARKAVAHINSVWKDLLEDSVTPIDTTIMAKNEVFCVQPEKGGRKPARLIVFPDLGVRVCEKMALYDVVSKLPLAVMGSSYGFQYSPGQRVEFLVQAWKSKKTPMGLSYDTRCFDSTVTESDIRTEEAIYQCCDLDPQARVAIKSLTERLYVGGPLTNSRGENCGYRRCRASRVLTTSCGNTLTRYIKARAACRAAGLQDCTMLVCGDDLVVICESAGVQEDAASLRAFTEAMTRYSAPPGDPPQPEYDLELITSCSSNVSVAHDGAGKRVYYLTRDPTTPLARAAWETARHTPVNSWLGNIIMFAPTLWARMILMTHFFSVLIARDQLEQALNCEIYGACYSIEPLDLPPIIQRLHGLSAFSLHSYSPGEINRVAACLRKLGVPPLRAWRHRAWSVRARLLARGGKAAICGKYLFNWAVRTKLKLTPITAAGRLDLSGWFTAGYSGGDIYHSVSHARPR
T1 sequence (P26663 2420-2989, stated change not applied): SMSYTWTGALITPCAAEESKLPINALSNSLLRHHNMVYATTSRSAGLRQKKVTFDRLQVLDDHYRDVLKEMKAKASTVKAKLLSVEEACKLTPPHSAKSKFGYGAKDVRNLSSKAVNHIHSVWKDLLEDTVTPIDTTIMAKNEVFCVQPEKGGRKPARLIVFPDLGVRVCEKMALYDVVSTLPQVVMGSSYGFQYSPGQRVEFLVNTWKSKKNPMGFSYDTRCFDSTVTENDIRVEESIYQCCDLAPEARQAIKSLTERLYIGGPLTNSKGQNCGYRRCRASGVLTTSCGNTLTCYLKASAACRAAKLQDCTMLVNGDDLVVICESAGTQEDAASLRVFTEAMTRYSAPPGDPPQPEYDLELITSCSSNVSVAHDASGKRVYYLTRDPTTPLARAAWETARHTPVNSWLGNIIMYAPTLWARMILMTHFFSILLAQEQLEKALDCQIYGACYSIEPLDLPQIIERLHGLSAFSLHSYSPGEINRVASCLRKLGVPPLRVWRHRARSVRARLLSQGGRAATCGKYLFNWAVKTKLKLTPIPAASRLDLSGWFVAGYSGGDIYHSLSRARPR

Turning to `COc1cc(NS(C)(=O)=O)ccc1/C=C/c1cc(N2CCC(=O)NC2=O)cc(C(C)(C)C)c1OC` [IA-L1-1.27, N-(4-{(E)-2-[3-tert-Butyl-5-(dioxo-tetrahydro-pyrimidin-1-yl)-2-methoxy-phenyl]-vinyl}-3-methoxy-phenyl)-methanesulfonamide], the IC50 was 0.01 to 0.1 µM in experiment [1] (HCV polymerase 1b, read-out: IC50 1b) and less than 0.01 µM in experiment [2] (HCV polymerase 1a, read-out: IC50 1a). Further, the EC50 was 0.01 to 0.1 µM in experiment [3] (replicon 1a-H77, luciferase, three days) and less than 0.01 µM in experiment [4] (replicon 1b-Con1, luciferase, three days).
With `COc1c(/C=C/c2ccc(NS(C)(=O)=O)cc2)cc(-n2ccc(=O)[nH]c2=O)cc1S(C)(=O)=O` [IB-L1-1.49, (E)-N-(4-(5-(2,4-dioxo-3,4-dihydropyrimidin-1(2H)-yl)-2-methoxy-3-(methylsulfonyl)styryl)phenyl)methanesulfonamide], the IC50 is 0.1 to 1 µM in experiment [1] and 0.01 to 0.1 µM in experiment [2]. In addition, the half-maximal effective concentration (EC50) in experiment [3] (setting [5]) and in experiment [4] (setting [6]) was greater than 1 µM throughout.
With `COc1c(/C=C/c2ccc(NS(C)(=O)=O)cc2CN2CC(O)C2)cc(-n2ccc(=O)[nH]c2=O)cc1C(C)(C)C` [IB-L1-1.29, N-[4-{(E)-2-[3-tert-butyl-5-(2,4-dioxo-3,4-dihydro-2H-pyrimidin-1-yl)-2-methoxy-phenyl]-vinyl}-3-(3-hydroxy-azetidin-1-ylmethyl)-phenyl]-methanesulfonamide], the IC50 in experiment [1] and in experiment [2] was 0.01 to 0.1 µM each time. In addition, the EC50 in experiment [3] (Hepatitis C virus, 72 h) lay within 0.1 to 1 µM; in experiment [4] (Hepatitis C virus, 72 h) it was 0.1 to 1 µM.
In the case of `COC(=O)c1cc(NS(C)(=O)=O)ccc1CCc1cc(-n2ccc(=O)[nH]c2=O)cc(C(C)(C)C)c1OC` [IB-L5-2-1.1, methyl 2-(3-tert-butyl-5-(2,4-dioxo-3,4-dihydropyrimidin-1(2H)-yl)-2-methoxyphenethyl)-5-(methylsulfonamido)benzoate], the 50% inhibitory concentration (IC50) in experiment [1] is 0.01 to 0.1 µM; in experiment [2] it was less than 0.01 µM. Besides, the EC50 in experiment [3] (setting [5]) was 0.01 to 0.1 µM; in experiment [4] (setting [6]), less than 0.01 µM.
With `COc1c(/C=C/c2ccc(NS(C)(=O)=O)cc2)cc(-n2ccc(=O)[nH]c2=O)cc1C(C)(C)CO` [IB-L1-1.45, (E)-N-(4-(5-(2,4-dioxo-3,4-dihydropyrimidin-1(2H)-yl)-3-(1-hydroxy-2-methylpropan-2-yl)-2-methoxystyryl)phenyl)methanesulfonamide], the half-maximal inhibitory concentration (IC50) is 0.01 to 0.1 µM in experiment [1] and less than 0.01 µM in experiment [2]. For the same compound, the EC50 in experiment [3] (setting [5]) was 0.01 to 0.1 µM; in experiment [4] (setting [6]), less than 0.01 µM.
On to `CC(C)(C)c1cc(/C=C/c2ccc(NS(C)(=O)=O)cc2)cc(N2CCC(=O)NC2=O)c1` [IA-L1-1.16, (E)-N-(4-(3-tert-butyl-5-(2,4-dioxotetrahydropyrimidin-1(2H)-yl)styryl)phenyl)methanesulfonamide], for which the IC50 in experiment [1] and in experiment [2] was less than 0.01 µM each time. In addition, the 50% effective concentration (EC50) in experiment [3] (Hepatitis C virus, 72 h) was 0.01 to 0.1 µM; in experiment [4] (Hepatitis C virus, 72 h), 0.01 to 0.1 µM.
With `COc1c(/C=C/c2ccc(NS(C)(=O)=O)cc2C(N)=O)cc(-n2ccc(=O)[nH]c2=O)cc1C(C)(C)C` [IB-L1-1.21, 2-{(E)-2-[3-tert-butyl-5-(2,4-dioxo-3,4-dihydro-2H-pyrimidin-1-yl)-2-methoxy-phenyl]-vinyl}-5-methanesulfonylamino-benzamide], the values for the half-inhibitory concentration (IC50) in experiment [1] and in experiment [2] were 0.01 to 0.1 µM and less than 0.01 µM, respectively. Besides, the EC50 is 0.01 to 0.1 µM in experiment [3] (Hepatitis C virus, 72 h) and less than 0.01 µM in experiment [4] (Hepatitis C virus, 72 h).
Regarding `COc1c(Br)cc(-n2ccc(=O)[nH]c2=O)cc1/C=C/c1ccc(NS(C)(=O)=O)cc1` [IB-L1-1.52, (E)-N-(4-(3-bromo-5-(2,4-dioxo-3,4-dihydropyrimidin-1(2H)-yl)-2-methoxystyryl)phenyl)methanesulfonamide], the IC50 in experiment [1] and in experiment [2] was 0.1 to 1 µM each time. Further, the EC50 was greater than 1 µM in experiment [3] (setting [5]) and 0.1 to 1 µM in experiment [4] (setting [6]).
With `COc1c(/C=C/c2ccc(NS(C)(=O)=O)cc2)cc(-n2ccc(=O)[nH]c2=O)cc1-c1cccs1` [IB-L1-1.48, (E)-N-(4-(5-(2,4-dioxo-3,4-dihydropyrimidin-1(2H)-yl)-2-methoxy-3-(thiophen-2-yl)styryl)phenyl)methanesulfonamide], the half-maximal inhibitory concentration (IC50) in experiment [1] and in experiment [2] was 0.01 to 0.1 µM in each case. Moreover, the EC50 in experiment [3] (setting [5]) was 0.1 to 1 µM; in experiment [4] (setting [6]), less than 0.01 µM.

As usually defined, the IC50 is the concentration at which inhibition is half-maximal. Broadly, the EC50 is the concentration at which the effect is half-maximal.
